Test results: paper PMC12005307, “A biofilm-targeting lipo-peptoid to treat Pseudomonas aeruginosa and Staphylococcus aureus co-infections” (Biofilm, 2025)
Converted amounts (≈) assume the structure as drawn. Like-named read-outs stand apart in the source and are kept apart here.

Tests used:
P. aeruginosa LESB58 [1] = assay: Checkerboard titration assay (in vitro synergy); type: cell-based, Pseudomonas aeruginosa; details: DFG; for Fold decrease in TM18 MIC: TM18 in combination with the named antibiotic; for Fold decrease in TM18 MIC / FICI, antibiotic combination with TM18: checkerboard; for Fold decrease in antibiotic MIC: antibiotic in combination with TM18, checkerboard; for FICI, antibiotic combination with TM18: 1 × 10^6 CFU/mL, 37 °C, 16–24 h, >0.5 and <=1 additive
Description: (§1) Each compound was serially diluted in PBS before transferring to a 96-well plate containing 1 × 10^6 CFU/mL P. aeruginosa or S. aureus, respectively, in DFG medium and incubated at 37 °C for 16–24 h. The MIC or combinatorial effect was determined as the lowest concentration with no visible growth and the fractional inhibitory concentration index (FICI) was calculated as [(MICA in combination)/MICA] + [(MICB in combination)/MICB] as previously. FICIs ≤ 0.5 indicate synergy, 0.5–1 indicate additivity and values above 1 indicate indifference or antagonism.

S. aureus USA300 LAC [2] = assay: Checkerboard titration assay (in vitro synergy); type: cell-based, Staphylococcus aureus; details: DFG; for Fold decrease in TM18 MIC: TM18 in combination with the named antibiotic; for Fold decrease in TM18 MIC / FICI, antibiotic combination with TM18: checkerboard; for Fold decrease in antibiotic MIC: antibiotic in combination with TM18, checkerboard; for FICI, antibiotic combination with TM18: 1 × 10^6 CFU/mL, 37 °C, 16–24 h, >0.5 and <=1 additive
Description: as §1

S. aureus USA300 LAC [3] = assay: MIC, broth microdilution; type: cell-based; details: Staphylococcus aureus, Table S6, antibiotic screen, medium not given
Description: (§2) Minimum inhibitory concentrations (MIC) were determined using an adapted broth microdilution method in Greiner bio flat chimney polypropylene 96-well plates. P. aeruginosa was used at 1 × 10^6 CFU/mL and S. aureus at 5 × 10^6 CFU/mL in MHB (Oxoid) and DFG, respectively. A separate polypropylene plate was used to prepare two-fold peptoid dilutions in PBS pH 7.5 (Gibco). Bacterial growth was determined by visible turbidity after incubation at 37 °C for 16 h (S. aureus) or 24 h (P. aeruginosa). MIC values were determined as the lowest concentration of the drug where no bacterial growth was visible. Metabolic activity (color change from blue to pink) was further determined by adding the metabolic dye PrestoBlue™ (Invitrogen) to each well for 30 min as confirmation of visual determination. All tests were performed in triplicate.

P. aeruginosa LESB58 [4] = assay: MIC, broth microdilution; type: cell-based; details: Pseudomonas aeruginosa
Description: as §2

P. aeruginosa LESB58 [5] = assay: Murine skin abscess model, co-infection, P. aeruginosa survivors; type: in vivo, Pseudomonas aeruginosa; details: 5 mg/kg intra-abscess after 1 h, day 3, CFU on selective agar
Description: (§3) The abscess model was performed as described previously for mono-species infections and modified as follows for dual-species infection. P. aeruginosa and S. aureus were grown individually to an OD600 of 1.0 in dYT broth. Bacterial cells were washed twice in PBS pH 7.4 (Gibco) and resuspended to an OD600 of 2.0 for S. aureus (∼2.5 × 10^7) and 1.0 for P. aeruginosa (∼2.5 × 10^7). For co-infections, P. aeruginosa and S. aureus were mixed (1:1) immediately before injecting 50 μL subcutaneously into the right side of the dorsum. TM1, TM14, TM18, or sterile PBS were injected directly into the infected area 1-h post-infection at a concentration of 5 mg/kg which was the highest concentration determined as non-toxic in our murine model (Table S10). The progression of the infection was monitored daily. A caliper was used to measure the abscess lesion size manually. The SilhouetteStar™ 3D wound camera and SilhouetteConnect™ software were used to photograph, measure, and analyze abscess lesion sizes (visible dermonecrosis). The skin abscesses (including accumulated pus) were excised and homogenized in sterile PBS using SPEX®SamplePrep 1600 MiniG™ for 5 min. […]
(§4) In vitro experiments were performed with at least three biological replicates. […] The predicted additive effect (PAE) was determined by calculating the sum of CFU log reduction for each individual treatment. […]

S. aureus USA300 LAC [6] = assay: Murine skin abscess model, co-infection, S. aureus survivors; type: in vivo, Staphylococcus aureus; details: 5 mg/kg intra-abscess after 1 h, day 3, CFU on selective agar
Description: as §3, §4

[7] = test system: P. aeruginosa LESB58 and S. aureus USA300 LAC; assay: Murine skin abscess model, co-infection, abscess size; type: in vivo, Pseudomonas aeruginosa and Staphylococcus aureus; details: 2.5 × 10^7 CFU of each species s.c., 5 mg/kg of each agent intra-abscess after 1 h
Description: as §3, §4

[8] = Table S6, antibiotic screen, medium not given, read-out: MIC

SMILES	Fold decrease in TM18 MIC (P. aeruginosa LESB58 [1]) [fold]	Fold decrease in antibiotic MIC (P. aeruginosa LESB58 [1]) [fold]	Fold decrease in TM18 MIC (S. aureus USA300 LAC [2]) [fold]	Fold decrease in antibiotic MIC (S. aureus USA300 LAC [2]) [fold]	MIC (S. aureus USA300 LAC [3]) [µg/mL]	MIC (P. aeruginosa LESB58 [4]; [8]) [µg/mL]	FICI, antibiotic combination with TM18 (P. aeruginosa LESB58 [1])	FICI, antibiotic combination with TM18 (S. aureus USA300 LAC [2])	reduction of P. aeruginosa survivors (P. aeruginosa LESB58 [5]) [fold]	reduction of S. aureus survivors (S. aureus USA300 LAC [6]) [fold]	reduction of abscess sizes ([7]; day 3) [%]	reduction of abscess sizes ([7]; day 3, listed as Meropenem) [%]	MIC (P. aeruginosa LESB58 [4]) [µg/mL]
CNC(C)C1CCC(N)C(OC2C(N)CC(N)C(OC3OCC(C)(O)C(NC)C3O)C2O)O1 (stereo not shown) [GEN, gentamicin]	1	2	1	2	0.78 (≈ 1.63 µM)	7.81 (≈ 16.4 µM)	1	1					
CC[C@H]1OC(=O)[C@H](C)[C@@H](O[C@H]2C[C@@](C)(OC)[C@@H](O)[C@H](C)O2)[C@H](C)[C@@H](O[C@@H]2O[C@H](C)C[C@H](N(C)C)[C@H]2O)[C@](C)(O)C[C@@H](C)CN(C)[C@H](C)[C@@H](O)[C@]1(C)O [AZM, azithromycin]	8	2	1	1	125 (≈ 167 µM)	25 (≈ 33.4 µM)	0.625	1					
C[C@@H](O)[C@H]1C(=O)N2C(C(=O)O)=C(S[C@@H]3CN[C@H](C(=O)N(C)C)C3)[C@H](C)[C@H]12 [meropenem]	2	2	2	4	0.78 (≈ 2.03 µM)		1	0.75	~100	~10	78	85	1.56 (≈ 4.07 µM)
NC[C@H]1O[C@H](O[C@H]2[C@H](O)[C@@H](O[C@H]3O[C@H](CO)[C@@H](O)[C@H](N)[C@H]3O)[C@H](N)C[C@@H]2N)[C@H](N)C[C@@H]1O [tobramycin]	2	2	1	1	0.78 (≈ 1.67 µM)	1.56 (≈ 3.34 µM)	1	1					

Continued, in another order:

Fold decrease in TM18 MIC (P. aeruginosa LESB58 [1]) [fold]	Fold decrease in antibiotic MIC (P. aeruginosa LESB58 [1]) [fold]	Fold decrease in TM18 MIC (S. aureus USA300 LAC [2]) [fold]	Fold decrease in antibiotic MIC (S. aureus USA300 LAC [2]) [fold]	MIC (S. aureus USA300 LAC [3]) [µg/mL]	MIC (P. aeruginosa LESB58 [4]; [8]) [µg/mL]	SMILES	FICI, antibiotic combination with TM18 (P. aeruginosa LESB58 [1])	FICI, antibiotic combination with TM18 (S. aureus USA300 LAC [2])	reduction of P. aeruginosa survivors (P. aeruginosa LESB58 [5]) [fold]	reduction of S. aureus survivors (S. aureus USA300 LAC [6]) [fold]	reduction of abscess sizes ([7]; day 3) [%]	reduction of abscess sizes ([7]; day 3, listed as Meropenem) [%]	MIC (P. aeruginosa LESB58 [4]) [µg/mL]
2	4	1	1	31.2 (≈ 57.2 µM)	12.5 (≈ 22.9 µM)	CC(C)(O/N=C(\C(=O)N[C@@H]1C(=O)N2C(C(=O)[O-])=C(C[n+]3ccccc3)CS[C@H]12)c1csc(N)n1)C(=O)O [CAZ, ceftazidime]	0.75	1					
1	2	4	2	15.6 (≈ 47.2 µM)	3.13 (≈ 9.45 µM)	O=C(O)c1cn(C2CC2)c2cc(N3CCNCC3)c(F)cc2c1=O [CIP, ciprofloxacin]	1	0.75					
